Results taken from US20070082893A1, “Active substance combination” (LABORATORIOS DEL DR. ESTEVE S.A, priority 2004, published 2007).

Tests used:
[1] = system: male Swiss mice; assay: Hot plate test in mice; assay type: in vivo; details: hot plate 55° C., Cizolirtine (as Citrate salt) 20 mg/kg i.p., Morphine 5 mg/kg s.c., combination 20 + 5 mg/kg; for % Analgesic activity 0.5 hours: 0.5 hours after administration; for % Analgesic activity 1 hour: 1 hour after administration; for % Analgesic activity 2 hours: 2 hours after administration
Description: The analgesic activity of the inventive active substance combination is determined in male Swiss mice (weight 20-25 g, Harlan Iberica, S. Feliu de Codinas, Barcelona, Spain) as described in the publication of G. Woolfe and A. D. MacDonald, J. Pharm. Exp. Ther. 1944, 80, pages 300-307. The respective description of this publication is incorporated by reference and forms part of the present disclosure.
According to this test the mice are put onto a plate, which is heated to 55° C. and the time is determined until the mice show signs of pain such as vigorous and repeated licking of the paws, jumping or pulling back the paws. The mice are kept on the hot plate for no longer than 40 seconds in order to avoid the development of cutaneous lesions. At first the untreated mice are subjected to the hot-plate test to determine a baseline for their pain induced behaviour. After 10 minutes the vehicle, the active substances and the inventive active substance combination to be tested are administered to different groups of mice. 0.5 hours, 1 hour and 2 hours after the administration the animals are put onto the hot plate and the time is measured until they show signs of pain. The analgesic efficacy of the active substances or active substance combination is calculated on the basis of the values obtained for the comparison group of mice which is only administered the vehicle.

[2] = system: male Swiss albino mice
Description: Pharmacodyn. 1971, 190, pages 213-218 in male Swiss albino mice (weight 20-25 g, Harlan Iberica, S. Feliu de Codinas, Barcelona, Spain).
Opioid dependency is developed in the mice by intraperitoneal administration of the opioid in a suitable dose known to those skilled in the art, e.g. 5 mg/kg/day for 4 consecutive days for morphine. Withdrawal symptoms are then induced by the intravenous administration of a suitable opioid antagonist in a dose known to those skilled in the art, for example, 2 mg/kg naloxone in case of morphine, 30 minutes after the administration of the final dose of the opioid is completed.
In the 30 minute period following the naloxone administration the mice show typical withdrawal symptoms, namely jumps and shakes (of the wet dog shake type), which are counted and registered.
The active substance combination is also administered to the mice for 4 consecutive days. After the administration of 2 mg/kg naloxone 30 minutes after the administration of the final dose of the active substance combination has been completed, the mice are closely watched for withdrawal symptoms, namely jumps and shakes (of the wet dog shake type), which are then counted and registered.
The influence of the active substance combination on withdrawal symptoms has been determined as described above.

[3] = 30 minute period after 2 mg/kg naloxone, Morphine 5 mg/kg/day s.c. over 4 days, alone or with Cizolirtine citrate 40 mg/kg/day i.p.

Row | Structure (SMILES) | % Analgesic activity 0.5 hours [1] | % Analgesic activity 1 hour [1] | % Analgesic activity 2 hours [1] | Number of jumps [2, 3] | Number of shakes [2, 3] | withdrawal symptoms associated with morphine on co-administration (in words) ([2]; table B, co-administered with morphine, opioid amount not reduced)
1 | CN1CC[C@]23c4c5ccc(O)c4O[C@H]2[C@@H](O)C=C[C@H]3[C@H]1C5 [Morphine] | 48.6% | 34.8% | 15.8% | 6.6 | 16.3 | –
2 | CN(C)CCOC(c1ccccc1)c1ccnn1C.O=C(O)CC(O)(CC(=O)O)C(=O)O (racemic) [Cizolirtine, (±)-5-[α-[2-(Dimethylamino)ethoxy]benzyl]-1-methyl-1H-pyrazole citrate] | 25.8% | 17.1% | 23.4% | – | – | significantly reduced
